Assay results reported in patent US10934303B2, “Aryl ethene derivative and pharmaceutical composition containing same as active ingredient” (priority 2016, dated 2021).

Tests used:
ERRγ = type: cell-based; details: for Functional Assay at 10 μM (% of control), Cpds: 24 hours, AD293; for Functional Assay, Cpds/Ref 5182: activity relative to reference compound GSK5182, 10 μM
Description: AD293 was cultured in a 24-well plate for 24 hours, using a DMEM High glucose culture medium (Hyclone, USA) to which 0.5% FBS was added at a concentration of 9×10^4/well. The culture medium was replaced with a DMEM High glucose culture medium to which 10% FBS was added, treatment was performed with a mixture of a TransIT-LT1 transfection reagent (Mirus, USA) and pCMX-Gal4-ERRγ, pFR-luciferase reporter plasmid, pCMV-β-gal, and culturing was performed for 24 hours. Thereafter, a luciferase activity assay and a β-gal assay were performed, respectively, with a lysate obtained after treatment with the arylethene derivative of the present invention for 24 hours. All results were derived from three or more independent repetitive experiments.

[1] = 1 μM, 30 minutes, 37° C., NADPH
[2] = 1 μM, 30 minutes, 37° C., NADPH; remark: listed apart in the source
Description: 2) Microsomal Stability Evaluation
Four liver microsomes (Human, Dog, Rat, Mouse 0.5 mg/ml) with a 0.1 M phosphate buffer solution (pH 7.4), and the arylethene derivative of the present invention were added to a concentration of 1 μM, culturing was performed at 37° C. for 5 minutes in advance, a NADPH regeneration system solution was added thereto, and culturing was performed at 37° C. for 30 minutes. Thereafter, in order to complete the reaction, an acetonitrile solution containing an internal standard material (chlorpropamide) was added thereto, centrifugation (14,000 rpm, 4° C.) was performed for 5 minutes, and a supernatant was injected into a LC-MS/MS system to analyze the substrate drug, thereby evaluating metabolism stability to the arylethene derivative of the present invention.

CYP1A2 = CYP1A2 (Homo sapiens (Human), UniProt P05177); test: Cytochrome P450 activity inhibition, CYP1A2; type: in vitro ADME; details: 10 μM, human liver microsomes, Phenacetin substrate
From the text: (§1) 1) Cytochrome P450 (CYP450) Activity Inhibition Evaluation

in vitro = in vitro ADME; set-up: Papp at 5 h: dose or concentration left out as unconfirmed; details: PBS pH 7.4, 25° C.; for Papp at 5 h: PAMPA, read-out: Permeability Pampa; for Permeability Pampa: 5 hours
CYP2C9 = CYP2C9 (Homo sapiens (Human), UniProt P11712); test: Cytochrome P450 activity inhibition, CYP2C9; type: in vitro ADME; details: 10 μM, human liver microsomes, Diclofenac substrate
From the text: as §1

CYP2D6 = CYP2D6 (Homo sapiens (Human), UniProt P10635); test: Cytochrome P450 activity inhibition, CYP2D6; type: in vitro ADME; details: 10 μM, human liver microsomes, Dextromethorphan substrate
From the text: as §1

CYP2C19 = CYP2C19 (Homo sapiens (Human), UniProt P33261); test: Cytochrome P450 activity inhibition, CYP2C19; type: in vitro ADME; details: 10 μM, human liver microsomes, S-mephenytoin substrate
From the text: as §1

CYP3A4 = CYP3A4 (Homo sapiens (Human), UniProt P08684); test: Cytochrome P450 activity inhibition, CYP3A4; type: in vitro ADME; details: 10 μM, human liver microsomes, Midazolam substrate
From the text: as §1

in vivo = type: in vivo; details: rat, IV, 1 mg/kg
Description: An oral administration group fasts the day before.
Blood of each animal is collected at 0 hour.
Into a tail vein of an intravenous administration group (IV), a drug is injected at a dose of 1 mg/kg (syringe).
To an oral administration group (PO), a drug is orally administered at a dose of 10 mg/kg (oral zondec)
After administration, blood of the intravenous administration group was collected through a jugular vein 8 times at 0.08, 0.25, 0.5, 1, 2, 4, 6, and 8 hours. One collected blood amount is 400 to 500 ul.
After administration, blood of the oral administration group was collected through a jugular vein 6 times at 0.25, 0.5, 1, 4, 6 and 8 hours. One collected blood amount is 400 to 500 ul.
Supernatant plasma is collected by a centrifuge.
The supernatant plasma was injected into a LC-MS/MS system and the drug is analyzed.

Chain of CYP3A4 (P08684 whole entry): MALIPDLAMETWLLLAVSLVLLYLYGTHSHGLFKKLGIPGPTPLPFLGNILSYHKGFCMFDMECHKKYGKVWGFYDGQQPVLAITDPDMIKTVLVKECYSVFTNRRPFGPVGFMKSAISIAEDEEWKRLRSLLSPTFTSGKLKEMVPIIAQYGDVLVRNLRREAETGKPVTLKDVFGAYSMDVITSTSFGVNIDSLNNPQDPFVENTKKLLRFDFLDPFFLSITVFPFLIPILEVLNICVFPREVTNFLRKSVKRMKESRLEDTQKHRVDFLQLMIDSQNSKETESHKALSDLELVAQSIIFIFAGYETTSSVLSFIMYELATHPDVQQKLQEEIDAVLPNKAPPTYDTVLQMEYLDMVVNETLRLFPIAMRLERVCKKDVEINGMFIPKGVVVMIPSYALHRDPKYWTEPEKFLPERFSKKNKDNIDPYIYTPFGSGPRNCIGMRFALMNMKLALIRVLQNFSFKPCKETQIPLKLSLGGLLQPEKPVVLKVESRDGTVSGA
Chain of CYP2D6 (P10635 whole entry): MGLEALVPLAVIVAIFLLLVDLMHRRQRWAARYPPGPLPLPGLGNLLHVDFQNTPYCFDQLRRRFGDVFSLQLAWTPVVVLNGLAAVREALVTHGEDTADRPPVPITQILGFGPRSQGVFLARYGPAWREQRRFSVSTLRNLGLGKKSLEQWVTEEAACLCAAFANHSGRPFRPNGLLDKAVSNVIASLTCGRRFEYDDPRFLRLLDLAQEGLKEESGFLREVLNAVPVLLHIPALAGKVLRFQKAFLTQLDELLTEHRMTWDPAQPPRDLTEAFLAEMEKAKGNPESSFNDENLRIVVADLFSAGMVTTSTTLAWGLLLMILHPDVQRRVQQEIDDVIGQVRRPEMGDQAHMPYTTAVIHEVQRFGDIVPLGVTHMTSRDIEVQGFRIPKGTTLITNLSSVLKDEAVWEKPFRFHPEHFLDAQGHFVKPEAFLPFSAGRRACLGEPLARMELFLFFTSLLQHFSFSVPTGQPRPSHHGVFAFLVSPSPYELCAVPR
Chain of CYP2C9 (P11712 whole entry): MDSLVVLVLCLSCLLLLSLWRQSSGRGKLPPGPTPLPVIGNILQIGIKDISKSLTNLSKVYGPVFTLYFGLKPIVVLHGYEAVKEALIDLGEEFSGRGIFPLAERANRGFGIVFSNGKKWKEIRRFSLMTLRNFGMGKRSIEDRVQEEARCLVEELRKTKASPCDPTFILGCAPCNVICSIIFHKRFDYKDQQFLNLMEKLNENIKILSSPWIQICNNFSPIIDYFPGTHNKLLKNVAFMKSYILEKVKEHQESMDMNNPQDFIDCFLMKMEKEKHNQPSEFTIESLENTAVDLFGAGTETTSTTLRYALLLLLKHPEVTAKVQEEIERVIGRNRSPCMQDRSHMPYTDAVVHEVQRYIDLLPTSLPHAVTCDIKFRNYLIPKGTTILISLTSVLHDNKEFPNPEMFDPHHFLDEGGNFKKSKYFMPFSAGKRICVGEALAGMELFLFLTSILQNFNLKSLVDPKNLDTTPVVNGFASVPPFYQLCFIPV
Chain of CYP1A2 (P05177 whole entry): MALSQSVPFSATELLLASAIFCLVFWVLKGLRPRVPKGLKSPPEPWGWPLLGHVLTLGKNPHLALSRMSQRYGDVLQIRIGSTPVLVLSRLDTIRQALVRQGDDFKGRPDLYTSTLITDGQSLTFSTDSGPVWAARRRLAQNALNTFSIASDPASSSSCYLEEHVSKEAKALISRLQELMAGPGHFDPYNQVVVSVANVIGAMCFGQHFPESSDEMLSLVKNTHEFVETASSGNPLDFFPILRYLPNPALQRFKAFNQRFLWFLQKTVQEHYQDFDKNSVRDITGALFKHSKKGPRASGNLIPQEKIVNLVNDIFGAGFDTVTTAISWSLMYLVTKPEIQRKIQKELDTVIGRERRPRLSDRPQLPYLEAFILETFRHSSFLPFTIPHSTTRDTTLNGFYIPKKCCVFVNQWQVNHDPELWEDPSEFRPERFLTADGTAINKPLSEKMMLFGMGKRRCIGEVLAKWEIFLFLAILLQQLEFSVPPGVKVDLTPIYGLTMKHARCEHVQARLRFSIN
Chain of CYP2C19 (P33261 whole entry): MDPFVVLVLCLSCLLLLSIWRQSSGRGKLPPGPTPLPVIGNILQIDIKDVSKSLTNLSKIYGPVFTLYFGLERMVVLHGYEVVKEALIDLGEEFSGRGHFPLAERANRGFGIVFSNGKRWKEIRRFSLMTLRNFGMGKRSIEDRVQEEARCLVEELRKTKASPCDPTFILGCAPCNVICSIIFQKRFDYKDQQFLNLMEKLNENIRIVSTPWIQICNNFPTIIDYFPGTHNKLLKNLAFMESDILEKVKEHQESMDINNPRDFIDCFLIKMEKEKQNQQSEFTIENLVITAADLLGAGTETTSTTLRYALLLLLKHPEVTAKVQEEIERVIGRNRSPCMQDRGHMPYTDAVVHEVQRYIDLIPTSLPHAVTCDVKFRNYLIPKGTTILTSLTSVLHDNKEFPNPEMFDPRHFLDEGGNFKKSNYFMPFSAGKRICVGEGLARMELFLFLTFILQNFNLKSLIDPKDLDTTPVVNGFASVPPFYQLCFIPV

| SMILES | Functional Assay at 10 μM (% of control), Cpds (ERRγ) | Functional Assay, Cpds/Ref 5182 (ERRγ) | MS(Microsomal Stability) (%) rat [1] [%] | MS(Microsomal Stability) (%) human [2] [%] | also measured |
| --- | --- | --- | --- | --- | --- |
| CN1CCN(CCOc2ccc(/C(=C(/CCCO)c3ccccc3)c3ccc(O)cc3)cc2)CC1 [Compound 6b] | 7.97 % of control | 2.59 |  |  |  |
| OCCC/C(=C(\c1ccc(O)cc1)c1ccc(OCCN2CCOCC2)cc1)c1ccccc1 [Compound 6c] | 4.64 % of control | 1.51 | 45.2 | 128.0 |  |
| CN1C[C@@H]1CCCOc1ccc(/C(=C(/CCCO)c2ccccc2)c2ccc(Br)cc2)cc1 (stereo partly drawn) [Compound 13c] | 10.58 % of control | 3.36 |  |  |  |
| CN1CCCC1CCOc1ccc(/C(=C(/CCCO)c2ccccc2)c2ccc(Br)cc2)cc1 (stereo not drawn) [Compound 13d] |  |  | 59.9 | 67.3 | CYP inhibition (% of control) 1A2 (CYP1A2): >100 % of control; Papp at 5 h (in vitro): 0.14 ×10⁻⁶ cm/s; CYP inhibition (% of control) 2C9 (CYP2C9): 97 % of control; CYP inhibition (% of control) 2D6 (CYP2D6): >100 % of control |
| CC(C)(C)OC(=O)N1CCN(c2ccc(/C(=C(/CCCO)c3ccccc3)c3ccc(O)cc3)cc2)CC1 [Compound 18m] | 2.97 % of control | 1.01 |  |  |  |
| OCCC/C(=C(\c1ccc(O)cc1)c1ccc(N2CCOCC2)cc1)c1ccccc1 [Compound 18o] | 23.2 % of control | 2.33 |  |  |  |
| CC(C)(C)OC(=O)N1CC(c2ccc(/C(=C(/CCCO)c3ccccc3)c3ccc(O)cc3)cc2)C1 [Compound 18t, tert-butyl (E)-3-(4-(5-hydroxy-1-(4-hydroxyphenyl)-2-phenylpent-1-en-1-yl)phenyl)azetidine-1-carboxylate] | 11.1 % of control | 1.11 | 80.5 | 66.9 | CYP inhibition (% of control) 1A2 (CYP1A2): 100 % of control; CYP inhibition (% of control) 2C19 (CYP2C19): 93 % of control; CYP inhibition (% of control) 2C9 (CYP2C9): 83 % of control; CYP inhibition (% of control) 2D6 (CYP2D6): 98 % of control |
| CN(C)CCn1cc(-c2ccc(/C(=C(/CCCO)c3ccccc3)c3ccc(O)cc3)cc2)nn1 [Compound 18u] | 5.33 % of control | 5.61 |  |  |  |
| OCCC/C(=C(\c1ccc(Br)cc1)c1ccc(N2CCNCC2)cc1)c1ccccc1 [Compound 20a, (E)-5-(4-bromophenyl)-4-phenyl-5-(4-(piperazin-1-yl)phenyl)pent-4-en-1-ol] | 3.15 % of control |  | 84.7 | 65.1 | CYP inhibition (% of control) 1A2 (CYP1A2): 85 % of control; CYP inhibition (% of control) 3A4 (CYP3A4): 55 % of control; CYP inhibition (% of control) 2C9 (CYP2C9): 76 % of control |
| OCCC/C(=C(\c1ccc(O)cc1)c1ccc(N2CCNCC2)cc1)c1ccccc1 [Compound 20c] | 2.72 % of control | 0.93 | 53.7 | 55.8 |  |
| OCCC/C(=C(\c1ccc(O)cc1)c1ccc(C2CNC2)cc1)c1ccccc1 [Compound 20e] |  |  | 82.1 | 78.1 | AUCINF (in vivo): 0.34 μMh; AUCall (in vivo): 0.28 μMh; Vss (in vivo): 52.8 L/kg; t1/2 (in vivo): 4.4 h |
| OCCC/C(=C(\c1ccc(Br)cc1)c1ccc(C2CNC2)cc1)c1ccccc1 [Compound 20f] |  |  | 99.5 | 83.9 | Permeability Pampa (in vitro): 0.14 10^−6 cm/s |
| CN1CCC(c2ccc(/C(=C(/CCCO)c3ccccc3)c3cccc(O)c3)cc2)CC1 [Compound 22ac] |  |  |  |  | CYP inhibition (% of control) 1A2 (CYP1A2): >100 % of control; CYP inhibition (% of control) 2C19 (CYP2C19): >100 % of control; CYP inhibition (% of control) 3A4 (CYP3A4): 85 % of control; CYP inhibition (% of control) 2C9 (CYP2C9): >100 % of control; CYP inhibition (% of control) 2D6 (CYP2D6): 86.2 % of control |
| Cc1ccc(/C(=C(\CCCO)c2ccccc2)c2ccc(C3CN(C(C)C)C3)cc2)cc1 [Compound 22e] |  |  |  |  | CYP inhibition (% of control) 1A2 (CYP1A2): 94.9 % of control; Permeability Pampa (in vitro): 6.16 10^−6 cm/s; CYP inhibition (% of control) 2C19 (CYP2C19): 58.4 % of control; CYP inhibition (% of control) 3A4 (CYP3A4): 58.2 % of control; CYP inhibition (% of control) 2C9 (CYP2C9): 61.3 % of control; CYP inhibition (% of control) 2D6 (CYP2D6): 71.8 % of control |
| CC(C)N1CCN(c2ccc(/C(=C(/CCCO)c3ccccc3)c3ccc(OS(C)(=O)=O)cc3)cc2)CC1 [Compound 28a, (E)-4-(5-hydroxy-1-(4-(4-isopropylpiperazin-1-yl)phenyl)-2-phenylpent-1-en-1-yl)phenyl methanesulfonate] | 1.14 % of control | 1.20 |  |  |  |
| CC(C)N1CCN(c2ccc(/C(=C(/CCCO)c3ccccc3)c3ccc(OS(=O)(=O)C(F)(F)F)cc3)cc2)CC1 [Compound 28d] | 1.69 % of control | 1.78 |  |  |  |
| CN1CCN(c2ccc(/C(=C(/CCCO)c3ccccc3)c3ccc(OC(=O)C(C)(C)C)cc3)cc2)CC1 [Compound 28e] | 4.76 % of control | 1.16 | 59.6 | 56.4 |  |
| CN1CCN(c2ccc(/C(=C(/CCCOC(=O)C(C)(C)C)c3ccccc3)c3ccc(O)cc3)cc2)CC1 [Compound 28f] | 4 % of control | 0.98 |  |  |  |
| CN1CCN(c2ccc(/C(=C(/CCCOC(=O)C(C)(C)C)c3ccccc3)c3ccc(OC(=O)C(C)(C)C)cc3)cc2)CC1 [Compound 28g] | 5.1 % of control | 1.25 |  |  |  |
| CN1CCN(Cc2ccc(/C(=C(/CCCO)c3ccccc3)c3ccc(O)cc3)cc2)CC1 [Compound 30a, (E)-4-(5-hydroxy-1-(4-((4-methylpiperazin-1-yl)methyl)phenyl)-2-phenylpent-1-en-1-yl)phenol] | 2.94 % of control | 3.09 |  |  |  |
| OCCC/C(=C(\c1ccc(O)cc1)c1ccc(OCCN2C[C@H]3CNC[C@H]3C2)cc1)c1ccccc1 [Compound 40, 4-((Z)-1-(4-(2-((3 aR,6aS)-hexahydropyrrolo[3,4-c]pyrrol-2(1H)-yl)ethoxy)phenyl)-5-hydroxy-2-phenylpent-1-en-1-yl)phenol] | 2.8 % of control | 0.96 | 72.0 | 64.7 |  |
| CN1CCN(C[Si](C)(C)c2ccc(/C(=C(/CCCO)c3ccccc3)c3ccc(O)cc3)cc2)CC1 [Compound 42a, (Z)-4-(1-(4-(dimethyl((4-methylpiperazin-1-yl)methyl)silyl)phenyl)-5-hydroxy-2-phenylpent-1-en-1-yl)phenol] | 4.37 % of control | 1.49 |  |  |  |
| C[Si](C)(CN1CCCCC1)c1ccc(/C(=C(/CCCO)c2ccccc2)c2ccc(O)cc2)cc1 [Compound 42b] | 11.6 % of control | 1.16 |  |  | Papp at 5 h (in vitro): 0.1 ×10⁻⁶ cm/s |
| C[Si](C)(CN1CCCC1)c1ccc(/C(=C(/CCCO)c2ccccc2)c2ccc(O)cc2)cc1 [Compound 42c] | 2.6 % of control | 0.89 |  |  |  |
| C[Si](C)(CC1CCNCC1)c1ccc(/C(=C(/CCCO)c2ccccc2)c2ccc(O)cc2)cc1 [Compound 42d] | 11.7 % of control | 3.99 |  |  |  |
| C[Si](C)(CN1C[C@H]2CNC[C@H]2C1)c1ccc(/C(=C(/CCCO)c2ccccc2)c2ccc(O)cc2)cc1 [Compound 42e] | 26.04 % of control | 6.37 |  |  |  |
| O=C(CN1CCCCC1)Nc1ccc(/C(=C(/CCCO)c2ccccc2)c2ccc(O)cc2)cc1 [Compound 44, (E)-N-(4-(5-hydroxy-1-(4-hydroxyphenyl)-2-phenylpent-1-en-1-yl)phenyl)-2-(piperidin-1-yl)acetamide] | 12.94 % of control | 3.16 |  |  |  |
| OCCC/C(=C(\c1ccc(O)cc1)c1ccc(NCCN2CCCCC2)cc1)c1ccccc1 [Compound 45, (E)-4-(5-hydroxy-2-phenyl-1-(4-((2-(piperidin-1-yl)ethyl)amino)phenyl)pent-1-en-1-yl)phenol] | 1.58 % of control | 1.55 |  |  |  |
| C[C@@]12CNC[C@]1(C)CN(CC(=O)Nc1ccc(/C(=C(/CCCO)c3ccccc3)c3ccc(O)cc3)cc1)C2 [Compound 46, 2-((3aR,6aS)-3a,6a-dimethylhexahydropyrrolo[3,4-c]pyrrol-2(1H)-yl)-N-(4-((E)-5-hydroxy-1-(4-hydroxyphenyl)-2-phenylpent-1-en-1-yl)phenyl)acetamide] | 78.46 % of control | 24.91 |  |  |  |
